# Legend:
# [1] = physico-chemical behaviour of taxol under nano-emulsion preparation and analysis conditions; assay type: physicochemical; conditions: after ultrasound, heat treatment (4 h at 60° C.) and analytical conditions (acetonitrile/water mixture)
# [2] = fluorescence quantum yield with reference to Nile Blue perchlorate in ethanol; assay type: physicochemical; conditions: in toluene
# Description: The fluorescence quantum yield of various photosensitizers formulated in a nano-emulsion and in solvent was measured with reference to Nile Blue perchlorate in ethanol, λexc 605 nm (Fref=0.27).
compound,measurement,setting,value
CC(=O)O[C@H]1C(=O)[C@@]2(C)[C@H]([C@H](OC(=O)c3ccccc3)[C@]3(O)C[C@H](OC(=O)[C@H](O)[C@@H](NC(=O)c4ccccc4)c4ccccc4)C(C)=C1C3(C)C)[C@]1(OC(C)=O)CO[C@@H]1C[C@@H]2O [paclitaxel],degradation of taxol,[1],absence of degradation
"C1=Cc2nc1c(-c1ccccc1)c1ccc([nH]1)c(-c1ccccc1)c1nc(c(-c3ccccc3)c3ccc([nH]3)c2-c2ccccc2)CC1 [mTPC, meso-tetraphenylchlorine]",Fluorescence quantum yield F,[2],0.38
